Here are results for 2 compounds from publication PMC4666032, “KPT-330, a potent and selective exportin-1 (XPO-1) inhibitor, shows antitumor effects modulating the expression of cyclin D1 and survivin in prostate cancer models” (BMC Cancer, 2015).

Molecules are shown by their SMILES.

One assay concerns PC3 xenografts. The assay can be described thus: PC3 xenograft in male nude mice. It is filed as in vivo. The following applies: for apoptosis in tumors (TUNEL staining) / cell proliferation in tumors (Ki-67 staining): KPT-251 100 mg/kg or KPT-330 10 mg/kg, sectioned tumors, PC3 xenografts (Fig. 7); for tumor weight: PC3 xenografts, PO Mon/Wed/Fri, vs vehicle. From the text: (§1) Male CD1 nude mice (Charles River, Milan, Italy) were maintained under the guidelines established by the University of L’Aquila, Medical School and Science and Technology School Board Regulations. Experiments on animals have been approved by your local IRB in compliance with the Italian government regulation n.116 January 27, 1992 for the use of laboratory animals which is line with ARRIVE guidelines. All mice received subcutaneous flank injections of 1 x 10^6 PC3, DU145 or 22v1 cells. Tumor growth was measured bi-weekly with a Vernier caliper (length x width). Tumor weight was calculated according to the formula: TW (mg) = tumor volume (mm^3) = d2 x D/2, where d and D are the shortest and longest diameters, respectively. The effects of the treatments were examined as previously described. Animals were sacrificed by carbon dioxide inhalation and tumors were subsequently removed surgically. A piece of tumor was frozen in liquid nitrogen for protein analysis and another piece was fixed in paraformaldehyde overnight for immunohistochemical analyses.
Mice were treated by oral gavage with either vehicle control (Pluronic F-68/PVP-K29/32), KPT330 or KPT251. Before tumor injection, animals were randomized into seven treatment groups as follows: Group 1: mice (10 animals) receiving 100 μl vehicle PO; Group 2: mice (10 animals) receiving 100 mg/kg KPT-251 every two days (Monday and Friday)/week PO; Group 3: mice (10 animals) receiving 30 mg/kg KPT-251 every two day/week PO; Group 4: mice (10 animals) receiving 10 mg/kg/day PO; Group 5: mice (10 animals) receiving 30 mg/kg KPT-330 every two days/week PO; Group 6: mice (10 animals) receiving 10 mg/kg KPT-330 every two days/week PO; Group 7: mice (10 animals) receiving 3 mg/kg/day KPT-330 PO. Treatments were started when tumor volumes reached approximately 80 mm^3 (Day 0) and were stopped after 28 days. The following parameters were used to quantify the antitumor effects upon different treatments: (1) tumor volume measured during and at the end of experiments, (2) tumor weight measured at the end of experiment, (3) complete response (CR) defined as the disappearance of the target lesion with respect to baseline, (4) partial response (PR) defined as a reduction of greater than 50 % of tumor volume with respect to baseline, (5) stable disease (SD) defined as a reduction of less than 50 % or an increase of less than 100 % of tumor volume with respect to baseline, (6) tumor progression (TP) defined as an increase of greater than […] of tumor volume with respect to baseline, (7) time to progression (TTP). In vivo, combinational studies were evaluated by CalcuSyn (Biosoft). For the calculation of CI, the values of cell kill for a fixed tumor volume were considered (determined by the log cell kill (LCK)). LCK was determined as LCKZ (TKC)/(3.3KTd), where Td represents the mean control group doubling time required to reach a fixed tumor volume, expressed in days, whereas T and C are the same values as described above.
To determine the effects of XPO-1 inhibition on prostate cancer growth in vivo, we used […] aggressive CRPC, PC3, DU145 and 22rv1, cell lines engrafted in male nude mice. Once tumors were established (80–100 mm3 in size), mice were divided into seven different groups (10 mice/group) and treated with varying doses of KPT-251 (10, 30, 100 mg/kg PO QoDx3) and KPT-330 (5, 10, 20 mg/kg PO QoDx3). Tumors were measured for 35 days. The effects of KPT-251 on tumor growth is shown in Fig. 5 and KPT-330 in Fig. 6. The mean tumor weight was calculated for each treatment group. […]

A further assay deals with 22rv1 xenografts. The assay can be described thus: 22rv1 xenograft in male nude mice. It is filed as in vivo. The following applies: PO Mon/Wed/Fri, vs vehicle.
Text: as §1, with “Animals were sacrificed by carbon dioxide inhalation and tumors were subsequently removed surgically. A piece of tumor was frozen in liquid nitrogen for protein analysis and another piece was fixed in paraformaldehyde overnight for immunohistochemical analyses.” left out
Mice were treated by oral gavage with either vehicle control (Pluronic F-68/PVP-K29/32), KPT330 or KPT251. […] In vivo, combinational studies were evaluated by CalcuSyn (Biosoft). For the calculation of CI, the values of cell kill for a fixed tumor volume were considered (determined by the log cell kill (LCK)). LCK was determined as LCKZ (TKC)/(3.3KTd), where Td represents the mean control group doubling time required to reach a fixed tumor volume, expressed in days, whereas T and C are the same values as described above. […]

The next assay relates to models of aggressive PCa. Nature of the assay: In vivo models of aggressive PCa (xenograft not specified). Set-up: species or system mice.
Text: as §1, with “Animals were sacrificed by carbon dioxide inhalation and tumors were subsequently removed surgically. A piece of tumor was frozen in liquid nitrogen for protein analysis and another piece was fixed in paraformaldehyde overnight for immunohistochemical analyses.” left out
Mice were treated by oral gavage with either vehicle control (Pluronic F-68/PVP-K29/32), KPT330 or KPT251. […] In vivo, combinational studies were evaluated by CalcuSyn (Biosoft). For the calculation of CI, the values of cell kill for a fixed tumor volume were considered (determined by the log cell kill (LCK)). LCK was determined as LCKZ (TKC)/(3.3KTd), where Td represents the mean control group doubling time required to reach a fixed tumor volume, expressed in days, whereas T and C are the same values as described above.

The test system of another assay is PC3, DU145 and 22rv1. Nature of the assay: Molecular changes by immunoblots, ELISA and immunocytochemistry. It is filed as cell-based, human. As to the method:
(§2) Cytoplasmic and nuclear protein extracts were obtained by using the Nuclear/Cytosol Fractionation Kit from Biovision Inc. (Milpitas, CA, USA). Cell extracts and conditioned media from treated and untreated cells were electrophoresed under reducing conditions and transferred to nitrocellulose filter (Schleicher and Schuell GmbH, Dassel, Germany). Non specific binding sites were blocked for 1 h in 5 % non-fat dried milk in a Tris buffer containing 20 mM Tris and 137 mM NaCl (pH 7.6). Blots were incubated with 1 μg/ml of primary antibody diluted in blocking solution for 1 h at room temperature, washed and then incubated for 1 h in secondary antibody diluted 1:3000 in blocking solution. Following an additional wash, reactive bands were visualized by a chemiluminescent detection kit (Supersignal, Perbio Science, Tattenhall, UK) using Bio-Rad gel Doc™ (Bio-Rad Laboratories S.r.l., Milan, Italy).
(§3) The molecular pathways that are induced by XPO-1 inhibition were evaluated by immunoblots, ELISA and immunocytochemical analyses performed in PC3, DU145 and 22rv1 as models of CRPC using 100 nM KPT-330 as reference compound. The effects were monitored in early and chronic treatments. […] In Fig. 3a, we show representative western blots for nuclear and cytoplasm expression of cyclin D1 and XPO-1 in PC3 cell extracts after 2–12 hr of treatment with KPT-330. […] In addition, prolonged treatment with KPT-330 determined a reduction of cyclin D1 protein expression in DU145 cell lines (Fig. 3c). Increased nuclear expression of FOXO3a is visible also by IHC (Fig. 3e) in 22rv1 cells treated with KPT-330. […] Therefore, the inhibition of XPO-1-mediated export machinery may enhance AR signaling (manuscript in preparation). […] Although proteasome inhibitors are considered for treatment of solid tumors, these compounds could reduce the effectiveness of selinexor, requiring further investigation.

Another assay deals with 22rv1 cells. Nature of the assay: Western blot of nuclear proteins. It is filed as cell-based, human. The following applies: 100 nM. As to the method: as §2, §3
For orientation: A western blot detects proteins with antibodies after separation by electrophoresis.

The next assay concerns PC3 cells. Nature of the assay: Western blot of nuclear proteins. Type of assay: cell-based, human. The following applies: 100 nM, 2-12 hrs. The protocol: as §2, §3

For the compound `FC(F)(F)c1cc(-c2ncn(/C=C\c3nnco3)n2)cc(C(F)(F)F)c1` [KPT-251], in the assay on PC3 xenografts, the “apoptosis in tumors (TUNEL staining)” value was “increased apoptosis”, the “cell proliferation in tumors (Ki-67 staining)” value is reported as “decreased cell proliferation” and the tumor weight entry is on record as “reduce tumor weight in a dose-dependent manner”. Moreover, the tumor weight result in the assay with 22rv1 xenografts is on record as “reduce tumor weight in a dose-dependent manner”.

For `O=C(/C=C\n1cnc(-c2cc(C(F)(F)F)cc(C(F)(F)F)c2)n1)NNc1cnccn1` [KPT-330], in the assay with PC3 xenografts, the “apoptosis in tumors (TUNEL staining)” value was “increased apoptosis”, the “cell proliferation in tumors (Ki-67 staining)” value is given as “decreased cell proliferation” and the tumor weight entry was “reduce tumor weight in a dose-dependent manner”. The tumor weight entry in the assay with 22rv1 xenografts was “reduce tumor weight in a dose-dependent manner”. Also, the “antitumor effects compared to KPT-251” value in the assay on models of aggressive PCa (at similar dosage) was “better antitumor effects”. Moreover, the “tumor volume relative to docetaxel-treated animals” value with models of aggressive PCa (internal control docetaxel, data not shown) is on record as “approximately one-third”. The cell cycle distribution entry with PC3, DU145 and 22rv1 (100 nM, 24, 48 and 72 hrs) was “accumulation of cells in the G1 cell cycle phase with loss of cells in the S and G2/M phase”. Moreover, in the assay on PC3, DU145 and 22rv1 (100 nM, early treatment), the “XPO-1 localization, early treatment” value is recorded as “early XPO-1 nuclear accumulation”; the “cyclin D1 cytosolic levels” value is recorded as “strongly reduced”; the “cyclin D1 nuclear expression” value is reported as “increased”. In addition, in the assay with PC3, DU145 and 22rv1 (100 nM, prolonged treatments), the “XPO-1 protein levels, prolonged treatment” value is reported as “dramatically reduced”. Besides, the “nuclear export of survivin” value in the assay on PC3, DU145 and 22rv1 (PCa cell lines, Western blots and ELISAs, 100 nM) is given as “reduced”. Besides, the “total expression of AR, prolonged exposure” value in the assay on 22rv1 cells (22rv1 cells, prolonged exposure) is on record as “significantly reduced”. Besides, in the assay with 22rv1 cells (AR+/p53wt 22rv1 cells), the “nuclear expression of p53 and MDM2” value is given as “increased”. In addition, the “nuclear expression of AR” value in the assay on 22rv1 cells (AR+/p53wt 22rv1 cells, early) was “increased”. The “nuclear FOXO, p21, p27, cyclin B1” value with PC3 cells is reported as “nuclear accumulation”.
